Test results taken from ChEMBL document CHEMBL6083208, “Integrating amino acids into Bcr-Abl inhibitors: design, synthesis, biological evaluation, and in silico studies” (RSC Med Chem, 2024).
Active and inactive are the calls of the source. The rule behind the calls is not given here.

Legend:
K562 [1] = assay: Induction of apoptosis in human K562 cells assessed as late apoptotic cells at 1 uM measured after 48 hrs by annexin-V/FITC and propidium iodide double staining based flow cytometry analysis (reference value: 10.34%); format: functional
K562 [2] = assay: Induction of apoptosis in human K562 cells assessed as necrotic cells at 1 uM measured after 48 hrs by annexin-V/FITC and propidium iodide double staining based flow cytometry analysis (reference value: 0.03%); format: functional
K562 [3] = assay: Induction of apoptosis in human K562 cells assessed as early apoptotic cells at 10 uM measured after 48 hrs by annexin-V/FITC and propidium iodide double staining based flow cytometry analysis (reference value: 2.16%); format: functional
BaF3 [4] = assay: Antiproliferative activity against mouse BaF3 cells harbouring Bcr-Abl T315I assessed of cell viability at 30 uM incubated for 72 hrs by Celltiter-glo luminescent cell viability assay relative to control; format: functional
Bcr/Abl fusion protein = Bcr/Abl fusion protein (Homo sapiens, UniProt P00519); assay: Inhibition of wild type Bcr-Abl (unknown origin) using Abltide as substrate incubated for 1 hr by luminescence based ADP-glo assay; format: protein assay
K562 [5] = assay: Induction of apoptosis in human K562 cells assessed as viable cells at 1 uM measured after 48 hrs by annexin-V/FITC and propidium iodide staining double based flow cytometry analysis (reference value: 87.47%); format: functional; conditions: read-out: Activity
THP-1 = assay: Antiproliferative activity against human THP-1 cells after 48 hrs by MTT assay; format: functional; set-up: concentration or dose not given beside the values
[6] = Inhibition of Bcr-Abl T315Ialpha mutant (unknown origin) using Abltide as substrate incubated for 1 hr by luminescence based ADP-glo assay; set-up: species or system Homo sapiens
K562 [7] = assay: Induction of apoptosis in human K562 cells assessed as early apoptotic cells at 20 uM measured after 48 hrs by annexin-V/FITC and propidium iodide double staining based flow cytometry analysis (reference value: 2.16%); format: functional
K562 [8] = assay: Induction of apoptosis in human K562 cells assessed as early apoptotic cells at 1 uM measured after 48 hrs by annexin-V/FITC and propidium iodide double staining based flow cytometry analysis (reference value: 2.16%); format: functional
K562 [9] = assay: Induction of apoptosis in human K562 cells assessed as viable cells at 20 uM measured after 48 hrs by annexin-V/FITC and propidium iodide double staining based flow cytometry analysis (reference value: 87.47%); format: functional; conditions: read-out: Activity
K562 [10] = assay: Induction of apoptosis in human K562 cells assessed as necrotic cells at 10 uM measured after 48 hrs by annexin-V/FITC and propidium iodide double staining based flow cytometry analysis (reference value: 0.03%); format: functional
K562 [11] = assay: Induction of apoptosis in human K562 cells assessed as late apoptotic cells at 20 uM measured after 48 hrs by annexin-V/FITC and propidium iodide double staining based flow cytometry analysis (reference value: 10.34%); format: functional
K562 [12] = assay: Induction of apoptosis in human K562 cells assessed as late apoptotic cells at 10 uM measured after 48 hrs by annexin-V/FITC and propidium iodide double staining based flow cytometry analysis (reference value: 10.34%); format: functional
[13] = target: T1, Bcr/Abl fusion protein (Homo sapiens) (UniProt P00519+P11274); assay: Inhibition of wild type BCR-ABL in human K562 cells assessed as inhibition of Bcr-Abl phosphorylation level at 20 uM measured after 48 hrs by Western blot analysis; format: cell-based
[14] = target: T1, Bcr/Abl fusion protein (Homo sapiens); assay: Inhibition of wild type BCR-ABL in human K562 cells assessed as inhibition of Bcr-Abl phosphorylation level at high concentration measured after 48 hrs by Western blot analysis; format: cell-based
HEK293 = assay: Antiproliferative activity against HEK293 cells after 48 hrs by MTT assay; format: toxicity, cell-based; set-up: concentration or dose not given beside the values; conditions: human, hek293, 48 h
K562 [15] = assay: cells; conditions: Homo sapiens, K562, 48 h
K562 [16] = assay: Induction of cell cycle arrest in human K562 cells assessed as increase in accumulation of cells at G0/G1 phase measured after 48 hrs by PI staining based flow cytometry analysis; format: functional; conditions: dose 1-20 µM
[17] = target: T1, Bcr/Abl fusion protein (Homo sapiens); assay: Inhibition of wild type BCR-ABL in human K562 cells assessed as inhibition of STAT5 phosphorylation level at 20 uM measured after 48 hrs by Western blot analysis; format: cell-based
[18] = target: T1, Bcr/Abl fusion protein (Homo sapiens); assay: Inhibition of wild type BCR-ABL in human K562 cells assessed as inhibition of STAT5 phosphorylation level at high concentration measured after 48 hrs by Western blot analysis; format: cell-based
BaF3 [19] = assay: Antiproliferative activity against mouse BaF3 cells harbouring Bcr-Abl T315I assessed of cell viability at 2 uM incubated for 72 hrs by Celltiter-glo luminescent cell viability assay relative to control; format: functional
K562 [20] = assay: Induction of apoptosis in human K562 cells assessed as necrotic cells at 20 uM measured after 48 hrs by annexin-V/FITC and propidium iodide double staining based flow cytometry analysis (reference value: 0.03%); format: functional
K562 [21] = assay: Induction of apoptosis in human K562 cells assessed as viable cells at 10 uM measured after 48 hrs by annexin-V/FITC and propidium iodide double staining based flow cytometry analysis (reference value: 87.47%); format: functional; conditions: read-out: Activity
BaF3 [22] = assay: Antiproliferative activity against mouse BaF3 cells harbouring Bcr-Abl T315I assessed of cell viability at 10 uM incubated for 72 hrs by Celltiter-glo luminescent cell viability assay relative to control; format: functional
K562 [23] = assay: cells; conditions: Homo sapiens, K562, 48 h, read-out: Activity
K562 [24] = assay: cells; conditions: Homo sapiens, K562, 48 h, read-out: Activity; remark: listed apart in the source
K562 [25] = assay: cells; conditions: Homo sapiens, K562, 48 h, read-out: Activity; remark: listed apart in the source
K562 [26] = assay: Induction of apoptosis in human K562 cells assessed as early apoptotic cells at 15 uM measured after 48 hrs by annexin-V/FITC and propidium iodide double staining based flow cytometry analysis (reference value: 1.96%); format: functional
K562 [27] = assay: Induction of apoptosis in human K562 cells assessed as necrotic cells at 1 uM measured after 48 hrs by annexin-V/FITC and propidium iodide double staining based flow cytometry analysis (reference value: 0.27%); format: functional
K562 [28] = assay: Induction of apoptosis in human K562 cells assessed as viable cells at 1 uM measured after 48 hrs by annexin-V/FITC and propidium iodide double staining based flow cytometry analysis (reference value: 85.73%); format: functional; conditions: read-out: Activity
K562 [29] = assay: Induction of apoptosis in human K562 cells assessed as early apoptotic cells at 10 uM measured after 48 hrs by annexin-V/FITC and propidium iodide double staining based flow cytometry analysis (reference value: 1.96%); format: functional
K562 [30] = assay: Induction of cell cycle arrest in human K562 cells assessed as increase in accumulation of cells at G0/G1 phase at 1 to 15 uM measured after 48 hrs by PI staining based flow cytometry analysis; format: functional; conditions: dose 1-15 µM
K562 [31] = assay: Induction of apoptosis in human K562 cells assessed as late apoptotic cells at 10 uM measured after 48 hrs by annexin-V/FITC and propidium iodide double staining based flow cytometry analysis (reference value: 12.03%); format: functional
K562 [32] = assay: Induction of apoptosis in human K562 cells assessed as late apoptotic cells at 1 uM measured after 48 hrs by annexin-V/FITC and propidium iodide double staining based flow cytometry analysis (reference value: 12.03%); format: functional
K562 [33] = assay: Induction of apoptosis in human K562 cells assessed as necrotic cells at 15 uM measured after 48 hrs by annexin-V/FITC and propidium iodide double staining based flow cytometry analysis (reference value: 0.27%); format: functional
K562 [34] = assay: Induction of apoptosis in human K562 cells assessed as viable cells at 10 uM measured after 48 hrs by annexin-V/FITC and propidium iodide double staining based flow cytometry analysis (reference value: 85.73%); format: functional; conditions: read-out: Activity
K562 [35] = assay: Induction of apoptosis in human K562 cells assessed as early apoptotic cells at 1 uM measured after 48 hrs by annexin-V/FITC and propidium iodide double staining based flow cytometry analysis (reference value: 1.96%); format: functional
K562 [36] = assay: Induction of apoptosis in human K562 cells assessed as necrotic cells at 10 uM measured after 48 hrs by annexin-V/FITC and propidium iodide double staining based flow cytometry analysis (reference value: 0.27%); format: functional
K562 [37] = assay: Induction of apoptosis in human K562 cells assessed as late apoptotic cells at 15 uM measured after 48 hrs by annexin-V/FITC and propidium iodide double staining based flow cytometry analysis (reference value: 12.03%); format: functional
K562 [38] = assay: Induction of apoptosis in human K562 cells assessed as viable cells at 15 uM measured after 48 hrs by annexin-V/FITC and propidium iodide double staining based flow cytometry analysis (reference value: 85.73%); format: functional; conditions: read-out: Activity
K562 [39] = assay: Induction of cell cycle arrest in human K562 cells assessed as reduction in accumulation of cells at S phase at 1 to 15 uM measured after 48 hrs by PI staining based flow cytometry analysis; format: functional; conditions: dose 1-15 µM

T1 sequence (P00519 whole entry, looked up, the tested form may be a part): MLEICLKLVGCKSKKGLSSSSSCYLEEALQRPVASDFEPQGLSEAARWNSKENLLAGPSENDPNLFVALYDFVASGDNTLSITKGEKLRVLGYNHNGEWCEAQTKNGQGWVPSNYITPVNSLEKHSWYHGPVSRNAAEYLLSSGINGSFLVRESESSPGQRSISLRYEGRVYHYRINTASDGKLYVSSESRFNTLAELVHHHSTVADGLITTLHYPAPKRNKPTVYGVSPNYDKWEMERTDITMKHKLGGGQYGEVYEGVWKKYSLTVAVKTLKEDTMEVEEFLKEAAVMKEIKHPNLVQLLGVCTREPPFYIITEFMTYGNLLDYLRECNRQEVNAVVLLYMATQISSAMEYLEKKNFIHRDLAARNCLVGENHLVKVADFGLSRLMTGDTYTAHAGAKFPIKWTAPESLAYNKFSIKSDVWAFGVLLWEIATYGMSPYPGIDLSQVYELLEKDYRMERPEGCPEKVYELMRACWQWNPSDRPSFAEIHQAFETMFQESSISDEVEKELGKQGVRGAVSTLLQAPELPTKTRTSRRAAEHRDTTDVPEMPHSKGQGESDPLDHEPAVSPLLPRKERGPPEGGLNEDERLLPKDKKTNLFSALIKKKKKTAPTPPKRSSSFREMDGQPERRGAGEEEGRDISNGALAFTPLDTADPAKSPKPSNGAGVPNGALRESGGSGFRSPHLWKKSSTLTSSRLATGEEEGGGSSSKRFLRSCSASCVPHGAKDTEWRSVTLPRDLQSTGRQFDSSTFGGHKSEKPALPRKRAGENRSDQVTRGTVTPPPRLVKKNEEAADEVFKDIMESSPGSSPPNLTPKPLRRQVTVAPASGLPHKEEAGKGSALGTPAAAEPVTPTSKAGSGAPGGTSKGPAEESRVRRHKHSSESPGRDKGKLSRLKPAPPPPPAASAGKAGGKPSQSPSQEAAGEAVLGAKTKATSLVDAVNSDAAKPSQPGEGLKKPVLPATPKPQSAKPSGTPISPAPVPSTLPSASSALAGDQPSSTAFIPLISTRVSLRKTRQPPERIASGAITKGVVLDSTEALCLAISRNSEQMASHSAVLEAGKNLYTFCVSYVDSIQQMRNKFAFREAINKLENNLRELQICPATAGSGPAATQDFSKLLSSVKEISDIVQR
T1 sequence (P11274 whole entry, looked up, the tested form may be a part): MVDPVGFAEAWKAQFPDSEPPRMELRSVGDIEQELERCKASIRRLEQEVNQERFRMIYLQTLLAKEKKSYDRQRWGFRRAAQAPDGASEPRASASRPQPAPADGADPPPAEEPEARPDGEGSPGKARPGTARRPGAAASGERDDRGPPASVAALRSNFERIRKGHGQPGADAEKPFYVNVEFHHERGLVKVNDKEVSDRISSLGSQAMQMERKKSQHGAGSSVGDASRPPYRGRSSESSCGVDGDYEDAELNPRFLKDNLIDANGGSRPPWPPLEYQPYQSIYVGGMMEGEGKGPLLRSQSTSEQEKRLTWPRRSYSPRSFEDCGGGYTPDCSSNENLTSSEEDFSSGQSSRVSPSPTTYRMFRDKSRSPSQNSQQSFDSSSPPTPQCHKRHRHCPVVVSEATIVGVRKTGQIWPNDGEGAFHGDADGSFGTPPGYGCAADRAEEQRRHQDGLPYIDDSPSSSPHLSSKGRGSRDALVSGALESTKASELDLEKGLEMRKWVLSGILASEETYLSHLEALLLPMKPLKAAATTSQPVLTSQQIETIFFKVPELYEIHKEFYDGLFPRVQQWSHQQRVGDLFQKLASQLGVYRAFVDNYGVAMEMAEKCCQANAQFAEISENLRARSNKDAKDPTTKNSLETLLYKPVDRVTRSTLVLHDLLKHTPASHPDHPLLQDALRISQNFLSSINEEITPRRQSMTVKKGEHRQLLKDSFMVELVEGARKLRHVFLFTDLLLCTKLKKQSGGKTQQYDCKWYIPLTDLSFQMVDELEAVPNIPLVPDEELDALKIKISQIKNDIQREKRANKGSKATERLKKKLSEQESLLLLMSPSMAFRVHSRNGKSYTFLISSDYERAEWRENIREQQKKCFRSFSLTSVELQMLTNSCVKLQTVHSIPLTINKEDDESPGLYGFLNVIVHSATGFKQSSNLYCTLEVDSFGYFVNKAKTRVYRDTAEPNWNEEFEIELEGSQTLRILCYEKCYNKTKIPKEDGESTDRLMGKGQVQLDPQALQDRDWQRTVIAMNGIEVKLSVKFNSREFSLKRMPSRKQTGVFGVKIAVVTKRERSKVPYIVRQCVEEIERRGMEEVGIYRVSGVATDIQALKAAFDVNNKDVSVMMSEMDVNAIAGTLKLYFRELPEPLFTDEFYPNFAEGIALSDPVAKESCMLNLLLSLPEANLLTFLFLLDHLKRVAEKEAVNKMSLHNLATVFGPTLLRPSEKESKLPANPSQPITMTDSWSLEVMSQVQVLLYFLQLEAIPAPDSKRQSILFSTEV
Sequence of Bcr/Abl fusion protein (P00519 whole entry, the tested form may be a part): as the sequence (P00519 whole entry, looked up, the tested form may be a part) above
Sequence of Bcr/Abl fusion protein (P11274 whole entry, further chain, the tested form may be a part): as the sequence (P11274 whole entry, looked up, the tested form may be a part) above

CC(=O)Nc1cc(-c2ccc(C(=O)N[C@@H](COC(C)(C)C)C(=O)Nc3ccc(Cl)c(C(F)(F)F)c3)cc2)ccn1
Activity (K562 [1]): 24.67% | Activity (K562 [2]): 0.07% | Activity (K562 [3]): 1.64% | inhibition at 30 µM (BaF3 [4]): 98.1% | IC50 (Bcr/Abl fusion protein): 0.231 nM | viability at 1 µM (K562 [5]): 73.9% | Activity (THP-1): 66% | IC50 [6]: 37.5 nM | Activity (K562 [7]): 1.52% | Activity (K562 [8]): 1.37% | viability at 20 µM (K562 [9]): 31.8% | Activity (K562 [10]): 0.07% | Activity (K562 [11]): 66.61% | Activity (K562 [12]): 38.85% | inhibition [13]: Active | inhibition [14]: Active | Activity (HEK293): 95% | IC50 (K562 [15]): 0.06 nM | Activity (K562 [16]): Dose-dependent-effect | inhibition [17]: Active | inhibition [18]: Active | inhibition at 2 µM (BaF3 [19]): 7.66% | Activity (K562 [20]): 0.07% | viability at 10 µM (K562 [21]): 59.4% | inhibition at 10 µM (BaF3 [22]): 64.1%

Cc1ccc(NC(=O)c2ccc(CN3CCN(C)CC3)cc2)cc1Nc1nccc(-c2cccnc2)n1 [IMATINIB]
Activity (THP-1): 100% | viability at 5 µM (K562 [23]): 74.3% | Activity (HEK293): 87% | IC50 (K562 [15]): 2.03 nM | viability at 1 µM (K562 [24]): 72.9% | viability at 10 µM (K562 [25]): 67.4%

CC(C)(C)C(=O)Nc1cc(-c2ccc(C(=O)N[C@@H](CO)C(=O)Nc3ccc(Cl)c(C(F)(F)F)c3)cc2)ccn1
Activity (K562 [26]): 2.21% | Activity (K562 [27]): 1.75% | viability at 1 µM (K562 [28]): 76.5% | Activity (K562 [29]): 2.83% | inhibition at 30 µM (BaF3 [4]): 99.2% | IC50 (Bcr/Abl fusion protein): 5.01 nM | Activity (K562 [30]): inactive | Activity (THP-1): 54% | Activity (K562 [31]): 21.34% | IC50 [6]: 122 nM | Activity (K562 [32]): 16.63% | Activity (K562 [33]): 3.98% | inhibition [13]: Active | viability at 10 µM (K562 [34]): 74.4% | inhibition [14]: Active | Activity (HEK293): 87% | IC50 (K562 [15]): 2.04 nM | inhibition [17]: Active | Activity (K562 [35]): 5.12% | Activity (K562 [36]): 1.39% | Activity (K562 [37]): 24.21% | inhibition [18]: Active | inhibition at 2 µM (BaF3 [19]): 0.2% | viability at 15 µM (K562 [38]): 69.6% | inhibition at 10 µM (BaF3 [22]): 99.9% | Activity (K562 [39]): inactive
